In PMC7034070, “Synthesis, anti-inflammatory, cytotoxic, and COX-1/2 inhibitory activities of cyclic imides bearing 3-benzenesulfonamide, oxime, and β-phenylalanine scaffolds: a molecular docking study” (Journal of Enzyme Inhibition and Medicinal Chemistry, 2020):
Values joined by “and” are separate entries in the source; they are usually repeats but may differ in a detail not shown here. Equal entries are not always repeated.

Legend:
[1] = test system: carrageenan induced rat paw oedema; test: rat carrageenan-induced foot paw oedema model; format: in vivo; settings: for Mean % increase in paw weight ± SEM / % Inhibition of paw oedema from control group: 2 h after carrageenan; for Mean % increase in paw weight ± SEM: control group 165.6 ± 1.6; for % Inhibition of paw oedema from control group: single dose screen (Table 1); for ED50: from three graded doses (45, 65, 80 mg/kg)
Experimental: Anti-inflammatory assessment of the newly synthesised compounds was carried out using an in vivo rat carrageenan-induced foot paw oedema model, as reported previously[16]^,[17].

mice = test: Ulcerogenicity measurement; format: in vivo; settings: for Average number of ulcers / Mean sum of lengths of elongated ulcer: mice; for Mean sum of lengths of elongated ulcer: ± SEM; for level of ulcerogenic activity (in words): relative to diclofenac and celecoxib
Experimental: Ulcerogenicity was evaluated according to a previously reported method[6]^a,[17]^,[18]. The number and total length of the ulcers for each animal were measured and their averages were calculated and used as the ulcer indices.

COX-2 = target: T1, COX-2 (Ovis aries, UniProt P79208); test: colorimetric COX (ovine) inhibitor screening assay kit; format: biochemical; settings: for SI, selectivity index (COX-1 IC50/COX-2 IC50): ovine COX-1/COX-2; for IC50: ovine COX-2, mean of two determinations
T1 construct: purchased Cayman Chemicals Inc., Ann Arbour, MI
T1 sequence (P79208 17-603): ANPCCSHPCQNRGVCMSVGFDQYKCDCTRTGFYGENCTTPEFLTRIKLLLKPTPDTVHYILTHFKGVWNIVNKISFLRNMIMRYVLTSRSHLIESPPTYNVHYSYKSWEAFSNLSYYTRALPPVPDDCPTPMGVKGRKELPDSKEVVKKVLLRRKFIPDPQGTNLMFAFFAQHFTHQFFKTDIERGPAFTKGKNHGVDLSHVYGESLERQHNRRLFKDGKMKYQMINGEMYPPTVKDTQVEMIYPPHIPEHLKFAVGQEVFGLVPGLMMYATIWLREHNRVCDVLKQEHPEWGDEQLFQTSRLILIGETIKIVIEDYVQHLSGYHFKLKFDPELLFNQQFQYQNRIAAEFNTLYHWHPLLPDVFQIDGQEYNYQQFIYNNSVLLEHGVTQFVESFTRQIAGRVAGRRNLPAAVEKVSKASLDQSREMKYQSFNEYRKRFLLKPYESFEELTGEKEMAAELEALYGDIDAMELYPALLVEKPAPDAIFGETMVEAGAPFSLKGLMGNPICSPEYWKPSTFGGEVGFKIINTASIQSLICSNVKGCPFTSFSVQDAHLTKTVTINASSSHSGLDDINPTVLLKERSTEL
Description: (§1) To determine the relative ability of the test compounds and reference drugs to inhibit COX-1/COX-2 isozymes, we used the colorimetric COX (ovine) inhibitor screening assay kit (Cayman Chemicals Inc., Ann Arbour, MI), according to the manufacturer’s instructions[3]^,[10]^,[11]^,[20].

COX-1 = target: T2, COX-1 (Ovis aries, UniProt P05979); test: as above; format: biochemical; settings: ovine COX-1, mean of two determinations
T2 construct: purchased Cayman Chemicals Inc., Ann Arbour, MI
T2 sequence (P05979 25-600): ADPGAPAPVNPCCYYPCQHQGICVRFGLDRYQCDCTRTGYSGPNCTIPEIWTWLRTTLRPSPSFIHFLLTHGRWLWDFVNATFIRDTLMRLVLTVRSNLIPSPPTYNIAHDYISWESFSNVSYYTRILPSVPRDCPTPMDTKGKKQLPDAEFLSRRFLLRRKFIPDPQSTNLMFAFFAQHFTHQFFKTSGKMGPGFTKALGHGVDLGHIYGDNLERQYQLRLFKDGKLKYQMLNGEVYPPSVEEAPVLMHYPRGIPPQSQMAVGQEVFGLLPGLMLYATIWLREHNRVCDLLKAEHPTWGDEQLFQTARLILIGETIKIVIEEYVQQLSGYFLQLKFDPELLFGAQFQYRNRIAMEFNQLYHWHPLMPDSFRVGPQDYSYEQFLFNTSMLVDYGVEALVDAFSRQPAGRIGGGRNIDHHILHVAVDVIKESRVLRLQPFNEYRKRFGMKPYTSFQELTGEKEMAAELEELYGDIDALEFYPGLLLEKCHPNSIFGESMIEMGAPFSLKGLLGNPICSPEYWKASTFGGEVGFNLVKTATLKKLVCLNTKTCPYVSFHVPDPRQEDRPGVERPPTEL
Description: as §1

melting point [°C]	SI, selectivity index (COX-1 IC50/COX-2 IC50) (COX-2)	IC50 (COX-2) [µM]	IC50 (COX-1) [µM]	Compound	Mean % increase in paw weight ± SEM [1] [%]	% Inhibition of paw oedema from control group [1]	% Inhibition of paw oedema from control group ([1]; listed as celecoxib) [%]	Percentage inhibition of paw oedema from control group ([1]; dose 45 mg/kg) [%]	Percentage inhibition of paw oedema from control group ([1]; dose 65 mg/kg) [%]	Percentage inhibition of paw oedema from control group ([1]; dose 80 mg/kg) [%]	ED50 [1] [mg/kg]	Average number of ulcers (mice)	Mean sum of lengths of elongated ulcer (mice) [mm]	level of ulcerogenic activity (in words) (mice)
–	–	–	–	Cc1ccc(-c2cc(C(F)(F)F)nn2-c2ccc(S(N)(=O)=O)cc2)cc1 [Celecoxib, 4-[5-(4-methylphenyl)-3-(trifluoromethyl)-1H-pyrazol-1-yl]benzenesulfonamide, reference compound]	27.3 ± 0.4	85.6 ± 0.4%	85.6	69.8	85.6	93.5	34.1	5	5.8 ± 0.77	–
256 to 258	–	–	–	NS(=O)(=O)c1cccc(N2C(=O)c3cc(Cl)c(Cl)cc3C2=O)c1 [Compound 7, 3-(5,6-Dichloro-1,3-dioxoisoindolin-2-yl)benzenesulfonamide]	129.7 ± 0.9	29.7% and 29.7 ± 0.2%	–	–	–	–	–	–	–	–
–	>333.3	0.15	> 50	NS(=O)(=O)c1cccc(N2C(=O)c3ccc([N+](=O)[O-])cc3C2=O)c1 [Compound 9]	35.6 ± 0.1	80.9% and 80.9 ± 0.9%	–	69.8	80.9	90.5	37	4	1.7 ± 0.21	very low levels of ulcerogenic activity
241 to 243	>14.3	3.5	> 50	NS(=O)(=O)c1cccc(N2C(=O)c3cccc4cccc(c34)C2=O)c1 [Compound 10, 3-(1,3-Dioxo-1H-benzo[de]isoquinolin-2(3H)-yl)benzenesulfonamide]	93.7 ± 0.4	49.2% and 49.2 ± 0.6%	–	–	–	–	–	–	–	–
184 to 186	>227.3	0.22	> 50	CC(=NO)c1ccc(N2C(=O)CCC2=O)cc1 [Compound 11, 1-(4-(1-(Hydroxyimino)ethyl)phenyl)pyrrolidine-2,5-dione]	45.0 ± 0.3	75.6% and 75.6 ± 0.6%	–	–	–	–	–	–	–	–
–	>312.5	0.16	> 50	C/C(=N/O)c1ccc(N2C(=O)C3CC=CCC3C2=O)cc1 (stereo not drawn) [Compound 12]	37.5 ± 0.5	79.7% and 79.7 ± 0.4%	–	65.3	79.7	87.4	39.2	5	2.4 ± 0.13	ulcerogenic level similar to celecoxib and less than that of diclofenac
–	>312.5	0.16	> 50	C/C(=N/O)c1ccc(N2C(=O)c3ccccc3C2=O)cc1 [Compound 13]	36.2 ± 0.2	80.4% and 80.4 ± 0.7%	–	67.9	80.4	91.1	37.5	5	2.1 ± 0.23	ulcerogenic level similar to celecoxib and less than that of diclofenac
–	>62.5	0.8	> 50	C/C(=N/O)c1ccc(N2C(=O)c3ccc(C)cc3C2=O)cc1 [Compound 14]	70.8 ± 0.6	61.6% and 61.6 ± 0.5%	–	–	–	–	–	–	–	–
–	>14.3	3.5	> 50	C/C(=N/O)c1ccc(N2C(=O)c3ccc(C(C)(C)C)cc3C2=O)cc1 [Compound 15]	95.7 ± 0.9	48.1% and 48.1 ± 0.2%	–	–	–	–	–	–	–	–
–	–	–	–	C/C(=N/O)c1ccc(N2C(=O)c3cc(Cl)c(Cl)cc3C2=O)cc1 [Compound 16]	115.3 ± 1.2	39.6% and 39.6 ± 0.4%	–	–	–	–	–	–	–	–
–	–	–	–	C/C(=N/O)c1ccc(N2C(=O)c3c(Cl)c(Cl)c(Cl)c(Cl)c3C2=O)cc1 [Compound 17]	135.6 ± 0.8	25.1% and 25.1 ± 0.6%	–	–	–	–	–	–	–	–
> 300	>178.6	0.28	> 50	CC(=NO)c1ccc(N2C(=O)c3cccc4cccc(c34)C2=O)cc1 [Compound 19, 2-(4-(1-(Hydroxyimino)ethyl)phenyl)-1H-benzo[de]isoquinoline-1,3(2H)-dione]	57.6 ± 0.5	68.8% and 68.8 ± 0.4%	–	–	–	–	–	–	–	–
–	0.46	25.1	11.6	O=C(O)CC(c1ccccc1)N1C(=O)C2CC=CCC2C1=O (stereo not drawn) [Compound 22]	69.1 ± 0.5	62.9 ± 0.4%	–	–	–	–	–	–	–	–
–	0.49	22.3	10.9	O=C(O)CC(c1ccccc1)N1C(=O)c2ccccc2C1=O (stereo not drawn) [Compound 23]	65.6 ± 0.3	64.4% and 64.4 ± 0.7%	–	–	–	–	–	–	–	–
–	0.68	36.3	24.8	Cc1ccc2c(c1)C(=O)N(C(CC(=O)O)c1ccccc1)C2=O (stereo not drawn) [Compound 24]	123.4 ± 0.9	33.1 ± 0.4%	–	–	–	–	–	–	–	–
119 to 121	–	–	–	CC(C)(C)c1ccc2c(c1)C(=O)N(C(CC(=O)O)c1ccccc1)C2=O (stereo not drawn) [Compound 25, 3-(5-(tert-Butyl)-1,3-dioxoisoindolin-2-yl)-3-phenylpropanoic acid]	129.0 ± 1.1	29.6 ± 0.7%	–	–	–	–	–	–	–	–
205 to 207	–	–	–	O=C(O)CC(c1ccccc1)N1C(=O)c2cc(Cl)c(Cl)cc2C1=O (stereo not drawn) [Compound 26, 3-(5,6-Dichloro-1,3-dioxoisoindolin-2-yl)-3-phenylpropanoic acid]	136.3 ± 0.8	24.4 ± 0.3%	–	–	–	–	–	–	–	–
280 to 282	–	–	–	O=C(O)CC(c1ccccc1)N1C(=O)c2c(Cl)c(Cl)c(Cl)c(Cl)c2C1=O (stereo not drawn) [Compound 27, 3-Phenyl-3-(4,5,6,7-tetrachloro-1,3-dioxoisoindolin-2-yl)propanoic acid]	141.6 ± 1.0	21.2 ± 0.9%	–	–	–	–	–	–	–	–
151 to 153	–	–	–	O=C(O)CC(c1ccccc1)N1C(=O)c2cccc3cccc(c23)C1=O (stereo not drawn) [Compound 29, 3-(1,3-Dioxo-1H-benzo[de]isoquinolin-2(3H)-yl)-3-phenylpropanoic acid]	130.8 ± 0.7	27.0% and 27.0 ± 0.1%	–	–	–	–	–	–	–	–
–	–	–	–	O=C(O)Cc1ccccc1Nc1c(Cl)cccc1Cl [Diclofenac, reference compound]	30.1 ± 0.3	83.4% and 83.4 ± 0.5%	–	–	–	–	–	10	7.6 ± 0.89	–
